# Reference: ChEMBL document CHEMBL3400015, “Tertiary amides of Salinomycin: A new group of antibacterial agents against Bacillus anthracis and methicillin-resistant Staphylococcus epidermidis” (Bioorg Med Chem Lett, 2015)
# What was measured:
# Assay type in all cases: functional
# [1] = system: Staphylococcus epidermidis; test: Antimicrobial activity against methicillin-resistant Staphylococcus epidermidis isolate 409/10 after 18 hrs by twofold serial broth dilution method; details: isolate 409/10, 18 h
# [2] = system: Staphylococcus epidermidis; test: Bactericidal activity against methicillin-resistant Staphylococcus epidermidis isolate 405/10 after 24 hrs; details: isolate 405/10, 24 h, read-out: MBC99.9
# Bacillus anthracis = test: Antimicrobial activity against Bacillus anthracis 34F2 after 18 hrs by twofold serial broth dilution method; details: 34F2, 18 h
# [3] = system: Staphylococcus epidermidis; test: Antimicrobial activity against methicillin-resistant Staphylococcus epidermidis isolate 470/11 after 18 hrs by twofold serial broth dilution method; details: isolate 470/11, 18 h
# Staphylococcus aureus [4] = test: Bactericidal activity against Staphylococcus aureus NCTC 4163 after 24 hrs; details: NCTC 4163, 24 h, read-out: MBC99.9
# [5] = system: Staphylococcus epidermidis; test: Antimicrobial activity against methicillin-resistant Staphylococcus epidermidis isolate 459/11 after 18 hrs by twofold serial broth dilution method; details: isolate 459/11, 18 h
# [6] = system: Staphylococcus epidermidis; test: Antimicrobial activity against methicillin-resistant Staphylococcus epidermidis isolate 455/11 after 18 hrs by twofold serial broth dilution method; details: isolate 455/11, 18 h
# Escherichia coli [7] = test: Bactericidal activity against Escherichia coli ATCC 10538 after 24 hrs; details: ATCC 10538, 24 h, read-out: MBC99.9
# [8] = system: Staphylococcus epidermidis; test: Bactericidal activity against Staphylococcus epidermidis ATCC 35984 after 24 hrs; details: ATCC 35984, 24 h, read-out: MBC99.9
# [9] = system: Staphylococcus epidermidis; test: Antimicrobial activity against methicillin-resistant Staphylococcus epidermidis isolate 457/11 after 18 hrs by twofold serial broth dilution method; details: isolate 457/11, 18 h
# Staphylococcus aureus [10] = test: Antimicrobial activity against Staphylococcus aureus […] after 18 hrs by twofold serial broth dilution method
# [11] = system: Staphylococcus epidermidis; test: Bactericidal activity against methicillin-resistant Staphylococcus epidermidis isolate 458/11 after 24 hrs; details: isolate 458/11, 24 h, read-out: MBC99.9
# Escherichia coli [12] = test: Antimicrobial activity against Escherichia coli NCTC 8196 after 18 hrs by twofold serial broth dilution method; details: NCTC 8196, 18 h
# [13] = system: Staphylococcus epidermidis; test: Antimicrobial activity against methicillin-resistant Staphylococcus epidermidis isolate 461/11 after 18 hrs by twofold serial broth dilution method; details: isolate 461/11, 18 h
# Staphylococcus aureus [14] = test: Antimicrobial activity against Staphylococcus aureus ATCC 6538 after 18 hrs by twofold serial broth dilution method; details: ATCC 6538, 18 h
# [15] = system: Staphylococcus epidermidis; test: Bactericidal activity against methicillin-resistant Staphylococcus epidermidis isolate 459/11 after 24 hrs; details: isolate 459/11, 24 h, read-out: MBC99.9
# Pseudomonas aeruginosa [16] = test: Bactericidal activity against Pseudomonas aeruginosa ATCC 27853 after 24 hrs; details: ATCC 27853, 24 h, read-out: MBC99.9
# [17] = system: Staphylococcus epidermidis; test: Bactericidal activity against methicillin-resistant Staphylococcus epidermidis isolate 404/10 after 24 hrs; details: isolate 404/10, 24 h, read-out: MBC99.9
# Pseudomonas aeruginosa [18] = test: Antimicrobial activity against Pseudomonas aeruginosa ATCC 15442 after 18 hrs by twofold serial broth dilution method; details: ATCC 15442, 18 h
# Staphylococcus aureus [19] = test: Bactericidal activity against Staphylococcus aureus ATCC 6538 after 24 hrs; details: ATCC 6538, 24 h, read-out: MBC99.9
# Staphylococcus aureus [20] = test: Bactericidal activity against Staphylococcus aureus […] after 24 hrs; details: read-out: MBC99.9
# [21] = system: Staphylococcus epidermidis; test: Bactericidal activity against methicillin-resistant Staphylococcus epidermidis isolate 461/11 after 24 hrs; details: isolate 461/11, 24 h, read-out: MBC99.9
# [22] = system: Staphylococcus epidermidis; test: Antimicrobial activity against methicillin-resistant Staphylococcus epidermidis isolate 469/11 after 18 hrs by twofold serial broth dilution method; details: isolate 469/11, 18 h
# Pseudomonas aeruginosa [23] = test: Antimicrobial activity against Pseudomonas aeruginosa NCTC 6749 after 18 hrs by twofold serial broth dilution method; details: NCTC 6749, 18 h
# [24] = system: Staphylococcus epidermidis; test: Bactericidal activity against methicillin-resistant Staphylococcus epidermidis isolate 407/10 after 24 hrs; details: isolate 407/10, 24 h, read-out: MBC99.9
# [25] = system: Staphylococcus epidermidis; test: Antimicrobial activity against methicillin-resistant Staphylococcus epidermidis isolate 424/10 after 18 hrs by twofold serial broth dilution method; details: isolate 424/10, 18 h
# [26] = system: Staphylococcus epidermidis; test: Bactericidal activity against methicillin-resistant Staphylococcus epidermidis isolate 454/11 after 24 hrs; details: isolate 454/11, 24 h, read-out: MBC99.9
# [27] = system: Staphylococcus epidermidis; test: Bactericidal activity against methicillin-resistant Staphylococcus epidermidis isolate 403/10 after 24 hrs; details: isolate 403/10, 24 h, read-out: MBC99.9
# Staphylococcus aureus [28] = test: Antimicrobial activity against Staphylococcus aureus ATCC 25923 after 18 hrs by twofold serial broth dilution method; details: ATCC 25923, 18 h
# [29] = system: Staphylococcus epidermidis; test: Bactericidal activity against methicillin-resistant Staphylococcus epidermidis isolate 469/11 after 24 hrs; details: isolate 469/11, 24 h, read-out: MBC99.9
# [30] = system: Staphylococcus epidermidis; test: Antimicrobial activity against methicillin-resistant Staphylococcus epidermidis isolate 403/10 after 18 hrs by twofold serial broth dilution method; details: isolate 403/10, 18 h
# Escherichia coli [31] = test: Bactericidal activity against Escherichia coli NCTC 8196 after 24 hrs; details: NCTC 8196, 24 h, read-out: MBC99.9
# [32] = system: Staphylococcus epidermidis; test: Bactericidal activity against methicillin-resistant Staphylococcus epidermidis isolate 457/11 after 24 hrs; details: isolate 457/11, 24 h, read-out: MBC99.9
# [33] = system: Staphylococcus epidermidis; test: Bactericidal activity against methicillin-resistant Staphylococcus epidermidis isolate 422/10 after 24 hrs; details: isolate 422/10, 24 h, read-out: MBC99.9
# [34] = system: Staphylococcus epidermidis; test: Bactericidal activity against methicillin-resistant Staphylococcus epidermidis isolate 409/10 after 24 hrs; details: isolate 409/10, 24 h, read-out: MBC99.9
# [35] = system: Staphylococcus epidermidis; test: Antimicrobial activity against Staphylococcus epidermidis ATCC 12228 after 18 hrs by twofold serial broth dilution method; details: ATCC 12228, 18 h
# [36] = system: Staphylococcus epidermidis; test: Bactericidal activity against Staphylococcus epidermidis ATCC 12228 after 24 hrs; details: ATCC 12228, 24 h, read-out: MBC99.9
# [37] = system: Staphylococcus epidermidis; test: Antimicrobial activity against methicillin-resistant Staphylococcus epidermidis isolate 458/11 after 18 hrs by twofold serial broth dilution method; details: isolate 458/11, 18 h
# [38] = system: Staphylococcus epidermidis; test: Bactericidal activity against methicillin-resistant Staphylococcus epidermidis isolate 460/11 after 24 hrs; details: isolate 460/11, 24 h, read-out: MBC99.9
# [39] = system: Staphylococcus epidermidis; test: Bactericidal activity against methicillin-resistant Staphylococcus epidermidis isolate 424/10 after 24 hrs; details: isolate 424/10, 24 h, read-out: MBC99.9
# [40] = system: Staphylococcus epidermidis; test: Antimicrobial activity against methicillin-resistant Staphylococcus epidermidis isolate 454/11 after 18 hrs by twofold serial broth dilution method; details: isolate 454/11, 18 h
# Pseudomonas aeruginosa [41] = test: Bactericidal activity against Pseudomonas aeruginosa NCTC 6749 after 24 hrs; details: NCTC 6749, 24 h, read-out: MBC99.9
compound,measurement,setting,value
CC[C@@H](C(=O)[C@@H](C)[C@@H](O)[C@H](C)[C@@H]1O[C@@H]([C@@H](CC)C(=O)N2CCOCC2)CC[C@@H]1C)[C@H]1O[C@]2(C=C[C@@H](O)[C@]3(CC[C@@](C)([C@H]4CC[C@](O)(CC)[C@H](C)O4)O3)O2)[C@H](C)C[C@@H]1C,MIC,[1],256 µg/mL
same,MBC,[2],> 256 µg/mL
same,MIC,Bacillus anthracis,128 µg/mL
same,MIC,[3],256 µg/mL
same,MBC,Staphylococcus aureus [4],> 256 µg/mL
same,MIC,[5],128 µg/mL
same,MIC,[6],256 µg/mL
same,MBC,Escherichia coli [7],> 256 µg/mL
same,MBC,[8],> 256 µg/mL
same,MIC,[9],256 µg/mL
same,MIC,Staphylococcus aureus [10],256 µg/mL
same,MBC,[11],> 256 µg/mL
same,MIC,Escherichia coli [12],256 µg/mL
same,MIC,[13],> 256 µg/mL
same,MIC,Staphylococcus aureus [14],128 µg/mL
same,MBC,[15],> 256 µg/mL
same,MBC,Pseudomonas aeruginosa [16],> 256 µg/mL
same,MBC,[17],> 256 µg/mL
same,MIC,Pseudomonas aeruginosa [18],256 µg/mL
same,MBC,Staphylococcus aureus [19],> 256 µg/mL
same,MBC,Staphylococcus aureus [20],> 256 µg/mL
same,MBC,[21],> 256 µg/mL
same,MIC,[22],> 256 µg/mL
same,MIC,Pseudomonas aeruginosa [23],128 µg/mL
same,MBC,[24],> 256 µg/mL
same,MIC,[25],256 µg/mL
same,MBC,[26],> 256 µg/mL
same,MBC,[27],> 256 µg/mL
same,MIC,Staphylococcus aureus [28],128 µg/mL
same,MBC,[29],> 256 µg/mL
same,MIC,[30],256 µg/mL
same,MBC,Escherichia coli [31],> 256 µg/mL
same,MBC,[32],> 256 µg/mL
same,MBC,[33],> 256 µg/mL
same,MBC,[34],> 256 µg/mL
same,MIC,[35],128 µg/mL
same,MBC,[36],> 256 µg/mL
same,MIC,[37],256 µg/mL
same,MBC,[38],> 256 µg/mL
same,MBC,[39],> 256 µg/mL
same,MIC,[40],128 µg/mL
same,MBC,Pseudomonas aeruginosa [41],> 256 µg/mL
O=C(O)c1cn(C2CC2)c2cc(N3CCNCC3)c(F)cc2c1=O [CIPROFLOXACIN],MIC,[1],2 µg/mL
same,MBC,[2],128 µg/mL
same,MIC,[3],0.125 µg/mL
same,MBC,Staphylococcus aureus [4],0.5 µg/mL
same,MIC,[5],32 µg/mL
same,MIC,[6],32 µg/mL
same,MBC,Escherichia coli [7],0.0016 µg/mL
same,MBC,[8],0.5 µg/mL
same,MIC,[9],32 µg/mL
same,MIC,Staphylococcus aureus [10],0.5 µg/mL
same,MBC,[11],> 256 µg/mL
same,MIC,[13],0.25 µg/mL
same,MIC,Staphylococcus aureus [14],0.25 µg/mL
same,MBC,[15],> 256 µg/mL
same,MBC,Pseudomonas aeruginosa [16],0.25 µg/mL
same,MBC,[17],> 256 µg/mL
same,MBC,Staphylococcus aureus [20],2 µg/mL
same,MBC,[21],1 µg/mL
same,MIC,[22],8 µg/mL
same,MIC,Pseudomonas aeruginosa [23],0.0625 µg/mL
same,MBC,[24],> 256 µg/mL
same,MIC,[25],8 µg/mL
same,MBC,[26],0.25 µg/mL
same,MBC,[27],128 µg/mL
same,MIC,Staphylococcus aureus [28],0.5 µg/mL
same,MBC,[29],128 µg/mL
same,MIC,[30],8 µg/mL
same,MBC,Escherichia coli [31],0.0016 µg/mL
same,MBC,[32],> 256 µg/mL
same,MBC,[33],64 µg/mL
same,MBC,[34],64 µg/mL
same,MIC,[35],0.25 µg/mL
same,MBC,[36],1 µg/mL
same,MIC,[37],32 µg/mL
same,MBC,[38],0.5 µg/mL
same,MBC,[39],256 µg/mL
same,MIC,[40],0.0625 µg/mL
same,MBC,Pseudomonas aeruginosa [41],0.125 µg/mL
CCCCCCCCN(CCCCCCCC)C(=O)[C@H](CC)[C@H]1CC[C@H](C)[C@H]([C@@H](C)[C@H](O)[C@H](C)C(=O)[C@H](CC)[C@H]2O[C@]3(C=C[C@@H](O)[C@]4(CC[C@@](C)([C@H]5CC[C@](O)(CC)[C@H](C)O5)O4)O3)[C@H](C)C[C@@H]2C)O1,MIC,[1],> 256 µg/mL
same,MBC,[2],> 256 µg/mL
same,MIC,Bacillus anthracis,64 µg/mL
same,MIC,[3],256 µg/mL
same,MBC,Staphylococcus aureus [4],> 256 µg/mL
same,MIC,[5],256 µg/mL
same,MIC,[6],> 256 µg/mL
same,MBC,Escherichia coli [7],> 256 µg/mL
same,MBC,[8],> 256 µg/mL
same,MIC,[9],256 µg/mL
same,MIC,Staphylococcus aureus [10],256 µg/mL
same,MBC,[11],> 256 µg/mL
same,MIC,Escherichia coli [12],> 256 µg/mL
same,MIC,[13],> 256 µg/mL
same,MIC,Staphylococcus aureus [14],128 µg/mL
same,MBC,[15],> 256 µg/mL
same,MBC,Pseudomonas aeruginosa [16],> 256 µg/mL
same,MBC,[17],> 256 µg/mL
same,MIC,Pseudomonas aeruginosa [18],> 256 µg/mL
same,MBC,Staphylococcus aureus [19],> 256 µg/mL
same,MBC,Staphylococcus aureus [20],> 256 µg/mL
same,MBC,[21],> 256 µg/mL
same,MIC,[22],256 µg/mL
same,MIC,Pseudomonas aeruginosa [23],> 256 µg/mL
same,MBC,[24],> 256 µg/mL
same,MIC,[25],> 256 µg/mL
same,MBC,[26],> 256 µg/mL
same,MBC,[27],> 256 µg/mL
same,MIC,Staphylococcus aureus [28],128 µg/mL
same,MBC,[29],> 256 µg/mL
same,MIC,[30],256 µg/mL
same,MBC,Escherichia coli [31],> 256 µg/mL
same,MBC,[32],> 256 µg/mL
same,MBC,[33],> 256 µg/mL
same,MBC,[34],> 256 µg/mL
same,MIC,[35],128 µg/mL
same,MBC,[36],> 256 µg/mL
same,MIC,[37],256 µg/mL
same,MBC,[38],> 256 µg/mL
same,MBC,[39],> 256 µg/mL
same,MIC,[40],> 256 µg/mL
same,MBC,Pseudomonas aeruginosa [41],> 256 µg/mL
